# USRE47221E1, “Tricyclic compounds” (AbbVie Inc., priority 2009, dated 2019)
# Biological target: T1, Jak3 (Homo sapiens, UniProt P52333)
# T1 construct: Jak3 enzyme (aa 811-1103); expressed in SF9 cells as a GST fusion; GST; made in house; host or cells: SF9 insect cells
# Experiment: Jak3 enzyme data for selected compounds
# Type: biochemical
# T1 sequence (P52333 811-1103): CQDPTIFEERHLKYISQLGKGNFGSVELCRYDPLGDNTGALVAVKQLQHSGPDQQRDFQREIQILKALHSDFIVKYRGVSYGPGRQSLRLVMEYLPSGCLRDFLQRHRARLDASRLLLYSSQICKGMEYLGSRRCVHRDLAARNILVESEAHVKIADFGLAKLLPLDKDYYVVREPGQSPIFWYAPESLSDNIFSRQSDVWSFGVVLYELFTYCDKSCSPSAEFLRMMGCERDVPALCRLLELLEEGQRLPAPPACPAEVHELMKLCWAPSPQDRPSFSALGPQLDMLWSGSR
row,Structure (SMILES),IC50 [µM]
1,"O=C(N1CCC[C@@H](c2cnc3cnc4[nH]ccc4n23)C1)N1CCC[C@@H]1C(F)(F)F [AA.1.10, (3-(3H-imidazo[1,2-a]pyrrolo[2,3-e]pyrazin-8-yl)piperidin-1-yl)((R)-2-(trifluoromethyl)pyrrolidin-1-yl)methanone]",0.1 to 1
2,"N#C[C@H]1CCN(C(=O)N2CCC[C@@H](c3ncc4cnc5[nH]ccc5n34)C2)C1 [AA.1.12, 1-((R)-3-(6H-imidazo[1,5-a]pyrrolo[2,3-e]pyrazin-1-yl)piperidine-1-carbonyl)pyrrolidine-3-carbonitrile]",< 0.1
3,CC[C@@H]1C[C@H](NS(=O)(=O)N2CCC2)C[C@@H]1c1nnc2cnc3[nH]ccc3n12 [D.1.10],0.1 to 1
4,CC[C@@H]1C[C@H](NS(=O)(=O)N2CC(F)(F)C2)C[C@@H]1c1nnc2cnc3[nH]ccc3n12 [D.1.11],0.1 to 1
5,CC[C@@H]1C[C@H](NS(=O)(=O)N2CCC[C@H]2C(F)(F)F)CC1c1nnc2cnc3[nH]ccc3n12 (stereo partly drawn) [D.1.12],0.1 to 1
6,CC[C@@H]1C[C@H](NS(=O)(=O)N2CCC(F)(F)C2)C[C@@H]1c1nnc2cnc3[nH]ccc3n12 [D.1.13],0.1 to 1
7,CC[C@@H]1C[C@H](N(C)S(=O)(=O)C2CC2)C[C@@H]1c1nnc2cnc3[nH]ccc3n12 [D.1.21],0.1 to 1
8,CC[C@@H]1C[C@H](N(CC2CC2)S(=O)(=O)C2CC2)C[C@@H]1c1nnc2cnc3[nH]ccc3n12 [D.1.22],0.1 to 1
9,CC[C@@H]1C[C@H](NS(=O)(=O)CCC(F)(F)F)C[C@@H]1c1nnc2cnc3[nH]ccc3n12 [D.1.24],0.1 to 1
10,CC[C@@H]1C[C@H](NS(=O)(=O)C2CC2)CN1c1cnc2cnc3[nH]ccc3n12 [D.1.25],< 0.1
11,O=S(=O)(NC12CCC(c3nnc4cnc5[nH]ccc5n34)(CC1)CC2)N1CCC1 [D.1.29],0.1 to 1
12,O=S(=O)(NC12CCC(c3nnc4cnc5[nH]ccc5n34)(CC1)CC2)N1CC(F)(F)C1 [D.1.30],0.1 to 1
13,CC[C@@H]1C[C@H](N(CCO)S(=O)(=O)C2CC2)C[C@@H]1c1nnc2cnc3[nH]ccc3n12 [D.1.31],< 0.1
14,CC1(S(=O)(=O)NC23CCC(c4nnc5cnc6[nH]ccc6n45)(CC2)CC3)CC1 [D.1.33],> 1
15,CC[C@@H]1C[C@H](NS(=O)(=O)C2(C)CC2)C[C@@H]1c1nnc2cnc3[nH]ccc3n12 [D.1.35],< 0.1
16,O=S(=O)(NC12CCC(c3nnc4cnc5[nH]ccc5n34)(CC1)CC2)C1CCC1 [D.1.39],0.1 to 1
17,CC[C@@H]1C[C@H](NS(=O)(=O)C2CC2)C[C@@H]1c1nc(Br)c2cnc3[nH]ccc3n12 [D.1.45],< 0.1
18,CC[C@@H]1C[C@H](NS(=O)(=O)C2CC2)CN1c1ncc2cnc3[nH]ccc3n12 [D.1.46],< 0.1
19,C[C@@H]1C[C@H](NS(=O)(=O)C2CC2)CN1c1ncc2cnc3[nH]ccc3n12 [D.1.47],0.1 to 1
20,N#Cc1ccc(OCC23C4C5C2C2C3C4C52c2ncc3cnc4[nH]ccc4n23)cc1 (stereo not drawn) [D.1.49],0.1 to 1
21,CC[C@@H]1C[C@H](NS(=O)(=O)N2CCN(C)CC2)C[C@@H]1c1nnc2cnc3[nH]ccc3n12 [D.1.50],> 1

row,Structure (SMILES),IC50 [µM]
1,FC(F)(F)c1nc2cnc3[nH]ccc3c2n1C1CCCCC1 [D.1.52],0.1 to 1
2,C[C@@H]1C[C@H](OCC2CC2)C[C@@H]1c1nnc2cnc3[nH]ccc3n12 [D.1.54],> 1
3,CC[C@@H]1C[C@H](NS(=O)(=O)NCCO)C[C@@H]1c1nnc2cnc3[nH]ccc3n12 [D.1.56],0.1 to 1
4,CC[C@@H]1C[C@H](NS(=O)(=O)CCn2ccnn2)C[C@@H]1c1nnc2cnc3[nH]ccc3n12 [D.1.58],0.1 to 1
5,CC[C@@H]1C[C@H](NS(=O)(=O)CCn2nccn2)C[C@@H]1c1nnc2cnc3[nH]ccc3n12 [D.1.59],0.1 to 1
6,CC[C@@H]1C[C@H](NS(=O)(=O)CCN2CCC(F)(F)CC2)C[C@@H]1c1nnc2cnc3[nH]ccc3n12 [D.1.60],> 1
7,CC[C@@H]1C[C@H](NS(=O)(=O)CCN2CCOCC2)C[C@@H]1c1nnc2cnc3[nH]ccc3n12 [D.1.61],> 1
8,CC[C@@H]1C[C@H](NCCS(=O)(=O)N2CCC(F)(F)C2)C[C@@H]1c1nnc2cnc3[nH]ccc3n12 [D.1.62],> 1
9,O=S(=O)(CCC(F)(F)F)N1CC2CC1CN2c1ncc2cnc3[nH]ccc3n12 (stereo not drawn) [D.1.63],> 1
10,O=S(=O)(CCC(F)(F)F)N1CC2CN(c3ncc4cnc5[nH]ccc5n34)CC2C1 (stereo not drawn) [D.1.64],> 1
11,O=S(=O)(CCC(F)(F)F)N1CCN(c2ncc3cnc4[nH]ccc4n23)CC(F)C1 (stereo not drawn) [D.1.65],> 1
12,CC[C@@H]1C[C@H](NS(=O)(=O)C(C)(C)C)C[C@@H]1c1nnc2cnc3[nH]ccc3n12 [D.1.67],0.1 to 1
13,CC1CCN(S(=O)(=O)CCC(F)(F)F)CCN1c1ncc2cnc3[nH]ccc3n12 (stereo not drawn) [D.1.70],0.1 to 1
14,O=S(=O)(CCC(F)(F)F)NC1CCCN(c2ncc3cnc4[nH]ccc4n23)C1 (stereo not drawn) [D.1.72],0.1 to 1
15,O=S(=O)(CCC(F)(F)F)N1CCC2CC1CN2c1ncc2cnc3[nH]ccc3n12 (stereo not drawn) [D.1.73],> 1
16,O=S(=O)(NC12CCC(c3ccc4cnc5[nH]ccc5n34)(CC1)CC2)C1CC1 [D.1.76],0.1 to 1
17,C[C@@H]1C[C@H](NS(=O)(=O)C2(C)CC2)C[C@@H]1c1ncc2cnc3[nH]ccc3n12 [D.1.77],0.1 to 1
18,C[C@@H]1C[C@H](NS(=O)(=O)N2CC(F)(F)C2)C[C@@H]1c1ncc2cnc3[nH]ccc3n12 [D.1.78],< 0.1
19,C[C@@H]1C[C@H](NS(=O)(=O)CCC(F)(F)F)C[C@@H]1c1ncc2cnc3[nH]ccc3n12 [D.1.79],< 0.1
20,C[C@@H]1C[C@H](NS(=O)(=O)N2CCC(F)(F)C2)C[C@@H]1c1ncc2cnc3[nH]ccc3n12 [D.1.80],< 0.1
21,CC[C@@H]1C[C@H](NS(=O)(=O)C2(CC)CC2)C[C@@H]1c1nnc2cnc3[nH]ccc3n12 [D.1.82],0.1 to 1

row,Structure (SMILES),IC50 [µM]
1,CCC1(S(=O)(=O)N[C@H]2C[C@@H](C)[C@@H](c3ncc4cnc5[nH]ccc5n34)C2)CC1 [D.1.83],< 0.1
2,CCCCC1(S(=O)(=O)N[C@H]2C[C@@H](CC)[C@@H](c3nnc4cnc5[nH]ccc5n34)C2)CC1 [D.1.84],0.1 to 1
3,CC[C@@H]1C[C@H](NS(=O)(=O)N2CC(C#N)C2)C[C@@H]1c1nnc2cnc3[nH]ccc3n12 [D.2.5],0.1 to 1
4,C[C@@H]1C[C@H](Nc2cccc(C#N)c2)C[C@@H]1c1nnc2cnc3[nH]ccc3n12 [D.2.6],> 1
5,CC[C@@H]1C[C@H](Nc2cnc(C#N)cn2)C[C@@H]1c1nnc2cnc3[nH]ccc3n12 [D.2.11],0.1 to 1
6,CC[C@@H]1C[C@H](Nc2cnc(C#N)cn2)C[C@@H]1c1ncc2cnc3[nH]ccc3n12 [D.2.13],< 0.1
7,N#Cc1cnc(NC[C@H]2CC[C@@H](c3ncc4cnc5[nH]ccc5n34)C2)cn1 [D.2.15],0.1 to 1
8,CC[C@@H]1C[C@H](Nc2ccc(C#N)cn2)C[C@@H]1c1nnc2cnc3[nH]ccc3n12 [D.2.19],0.1 to 1
9,C[C@@H]1C[C@H](Nc2cnc(C#N)cn2)C[C@@H]1c1ncc2cnc3[nH]ccc3n12 [D.2.21],0.1 to 1
10,N#Cc1ccnc(NC[C@H]2CC[C@@H](c3nnc4cnc5[nH]ccc5n34)C2)c1 [D.2.23],> 1
11,CC[C@@H]1C[C@@H](Oc2ccc(C#N)cc2)C[C@@H]1c1ncc2cnc3[nH]ccc3n12 [D.2.24],< 0.1
12,C[C@@H]1CCN(S(=O)(=O)N2CCCC2)C[C@@H]1c1ncc2cnc3[nH]ccc3n12 [DD.1.1],< 0.1
13,"O=C(C1CC(F)(F)C1)N1CCC[C@@H](c2cnc3cnc4[nH]ccc4n23)C1 [Example #3, (R)-(3-(3H-imidazo[1,2-a]pyrrolo[2,3-e]pyrazin-8-yl)piperidin-1-yl)(3,3-difluorocyclobutyl)methanone]",< 0.1
14,"CC[C@@H]1C[C@@H](Oc2ccc(C#N)cc2)C[C@@H]1c1nnc2cnc3[nH]ccc3n12 [Example #4, 4-((1R,3R,4S)-3-ethyl-4-(6H-pyrrolo[2,3-e][1,2,4]triazolo[4,3-a]pyrazin-1-yl)cyclopentyloxy)benzonitrile]",< 0.1
15,"C[C@@H]1CCN(C(=NC#N)N2CCCC2)C[C@@H]1c1ncc2cnc3[nH]ccc3n12 [Example #5, N-(((3R,4R)-3-(6H-imidazo[1,5-a]pyrrolo[2,3-e]pyrazin-1-yl)-4-methylpiperidin-1-yl)(pyrrolidin-1-yl)methylene)cyanamide]",0.1 to 1
16,"O=C(N1CCC(F)(F)CC1)N1CCC[C@@H](c2ncc3cnc4[nH]ccc4n23)C1 [Example #6, (R)-(3-(6H-imidazo[1,5-a]pyrrolo[2,3-e]pyrazin-1-yl)piperidin-1-yl)(4,4-difluoropiperidin-1-yl)methanone]",0.1 to 1
17,"CC[C@@H]1C[C@H](Nc2ncc(C#N)s2)C[C@@H]1c1nnc2cnc3[nH]ccc3n12 [Example #8, 2-((1S,3R,4S)-3-ethyl-4-(6H-pyrrolo[2,3-e][1,2,4]triazolo[4,3-a]pyrazin-1-yl)cyclopentylamino)thiazole-5-carbonitrile]",0.1 to 1
18,"O=S(=O)(NC12CCC(c3nnc4cnc5[nH]ccc5n34)(CC1)CC2)N1CCCC1 [Example #9, N-(4-(6H-pyrrolo[2,3-e][1,2,4]triazolo[4,3-a]pyrazin-1-yl)bicyclo[2.2.2]octan-1-yl)pyrrolidine-1-sulfonamide]",0.1 to 1
19,"CC[C@@H]1C[C@H](NS(=O)(=O)C2CC2)C[C@@H]1c1nc(CCCO)c2cnc3[nH]ccc3n12 [Example #14, N-((1S,3R,4S)-3-ethyl-4-(3-(3-hydroxypropyl)-6H-imidazo[1,5-a]pyrrolo[2,3-e]pyrazin-1-yl)cyclopentyl)cyclopropanesulfonamide]",< 0.1
20,"CC[C@@H]1C[C@H](NS(=O)(=O)C2CC2)C[C@@H]1c1nc(CO)c2cnc3[nH]ccc3n12 [Example #17, N-((1S,3R,4S)-3-ethyl-4-(3-(hydroxymethyl)-6H-imidazo[1,5-a]pyrrolo[2,3-e]pyrazin-1-yl)cyclopentyl)cyclopropanesulfonamide]",< 0.1
21,"CC[C@@H]1C[C@H](NS(=O)(=O)C2CC2)C[C@@H]1c1nc(CCO)c2cnc3[nH]ccc3n12 [Example #18, N-((1S,3R,4S)-3-ethyl-4-(3-(2-hydroxyethyl)-6H-imidazo[1,5-a]pyrrolo[2,3-e]pyrazin-1-yl)cyclopentyl)cyclopropanesulfonamide]",0.1 to 1
